# Reference: patent publication US20230348447A1, “OXAZOLIDINONE COMPOUNDS, LIPOSOME COMPOSITIONS COMPRISING OXAZOLIDINONE COMPOUNDS AND METHOD OF USE THEREOF” (priority 2020, published 2023)
# Several values for one entry are separate records, joined by “and”; a condition that tells them apart may be missing. Equal entries are not always repeated. Where two headings read alike, the source gives them in different places.
# Experiments:
# M.tb Erdman = assay: Broth microdilution MIC with Alamar blue endpoint (MABA) / OD600; assay type: cell-based, Mycobacterium tuberculosis
# M.tb H37Rv = assay: as above; assay type: cell-based, Mycobacterium tuberculosis
# [1] = tested on: African green monkey kidney (Vero; ATCC # CCL81) cells; assay: In vitro cytotoxicity (PrestoBlue cell viability), Vero; assay type: cell-based
# [2] = tested on: human hepatocyte/liver (HepG2; ATCC #HB8065) cells; assay: In vitro cytotoxicity (PrestoBlue cell viability), HepG2; assay type: cell-based
# [3] = tested on: M. Tuberculosis Erdman or H37Rv vs VERO or HepG2 cells; assay: Selectivity Index (mammalian cell IC50 / bacterial MIC); parameters: species or system Mycobacterium tuberculosis
# [4] = Aqueous solubility (visually clear solutions); assay type: physicochemical; conditions: for Concentration % (w/w) of free base (visually clear solution): aqueous, 1 N HCl and/or water added
# Experimental: Working stocks of the compounds were prepared as follows: to an aliquot of a compound (free base) in a powder form 1-1.5 equivalents of HCl in the form of 1 N aqueous solution was added, and the mixture was vortexed until homogeneity. To the resulting cake or syrup, water was added typically to the final 10 mg/ml, and complete dissolution was observed. In some instances, 0.95 equivalents of HCl were added to the free base form of the drug, and 20 mg/ml stock solution was prepared.
# Aqueous solubility of the compounds of the present disclosure is illustrated by the following observations of obtaining visually clear solutions: […]
# [5] = tested on: mitochondrial protein synthesis (COX-1/SDH-A ratio) in H9C2 rat heart myoblast cells; assay: Mitochondrial protein synthesis inhibition (MitoBiogenesis in-cell ELISA, COX-1/SDH-A); assay type: cell-based; conditions: 120 h, five days, read-out: MPS IC50
# M.avium = assay: MIC in nontuberculosis mycobacteria (microbroth dilution, resazurin); assay type: cell-based, Mycobacterium avium; conditions: for MIC: Mycobacterium avium
# M. chelonae = assay: as above; assay type: cell-based, Mycobacterium chelonae; conditions: Mycobacteroides chelonae
# M. abscessus = assay: as above; assay type: cell-based, Mycobacterium abscessus; conditions: Mycobacteroides abscessus
# M. kansasii = assay: as above; assay type: cell-based; conditions: Mycobacterium kansasii
# M. massiliense = assay: as above; assay type: cell-based, Mycobacterium massiliense
# [6] = In vitro burst release of liposomal drug in plasma, human; conditions: mouse or human plasma, 20 min 37° C., 0.5 M AS liposomes, 40-65 mol% Chol (FIG. 5A, 5B)
# Experimental: The plasma was thawed, if necessary, adjusted to pH 7.4 with 1 N HCl, and sequentially filtered through glass microfiber filters (GF/C), 1 µm polyethersulfone (PES), and 0.22 µm PES filters. Plasma (80 µl) was mixed with liposomal drug formulations (20 µl) in a 0.5 ml Eppendorf tube. The mixture was subsequently incubated for 20 min at 37° C. and then put into chilled water.
# Incubation time was 20 min.
# MRSA ATCC BAA-1556 [7] = assay: MIC against methicillin resistant Staphylococcus aureus (MRSA)
# MRSA ATCC 43300 = assay: as above; conditions: read-out: MRSA MIC, ATCC 43300
# MRSA 880 NR-49120 = assay: as above; conditions: read-out: MRSA MIC, 880 NR-49120
# [8] = Liposome loading / encapsulation efficiency (General protocol); conditions: for maximum drug load: HSPC:Chol 3:2, 0.5 mol% PEG-DSG (Example 14); for liposome aggregation during drug loading: AKG-28: 5 mol% PEG-DSG or PEG-DSPE, AKG-38: 5 mol% PEG-DSPE
# [9] = from drugbank.ca; cited from earlier work
# MRSA ATCC BAA-1556 [10] = conditions: cited from earlier work
# [11] = M. avium sbsp. avium strain 2285 R, read-out: MIC
# [12] = M. kansasii strain 662, read-out: MIC
# [13] = read-out: MRSA MIC, ATCC BAA-1556
# [14] = 30 mol% cholesterol, 1 N TEA-SOS
# [15] = Mycobacterium tuberculosis, ERDMAN; read-out: Mycobacterium tuberculosis MIC, Erdman
# [16] = Mycobacterium tuberculosis; M. tuberculosis Erdman / H37Rv, strains not separated; read-out: MIC
# [17] = Mycobacterium tuberculosis, H37RV; as determined in Example 2; read-out: MIC (H37Rv)
# [18] = Mycobacterium tuberculosis, H37RV; read-out: Mycobacterium tuberculosis MIC, H37Rv
# [19] = M. avium sbsp. avium strain 2285 S, read-out: MIC
# [20] = M. avium sbsp. avium strain 3993, read-out: MIC
# [21] = M. chelonae strain 49, read-out: MIC
# [22] = M. chelonae strain 69, read-out: MIC
# [23] = M. abscessus sbsp. abscessus strain 21, read-out: MIC
# [24] = M. abscessus sbsp. abscessus strain 1513, read-out: MIC
# [25] = M. abscessus sbsp. abscessus strain 1948, read-out: MIC
# [26] = M. kansasii strain 732, read-out: MIC
# [27] = M. kansasii strain 824, read-out: MIC
# [28] = M. kansasii strain MK13D6, read-out: MIC
# [29] = Mycobacteroides abscessus, CIP108297, M. massiliense strain CIP 108297, read-out: MIC
# [30] = Mycobacteroides abscessus, M. massiliense strain CRM0019, read-out: MIC
compound,measurement,setting,value
CN(C)CCn1nnc(-c2ccc(-c3ccc(N4C[C@H](CN)OC4=O)cc3F)cn2)n1.Cl [AKG-28],fold more potent than linezolid in killing M. Tuberculosis in vitro,M.tb Erdman; Erdmann strain,33 fold
same,MIC,"M.tb Erdman; Mycobacterium tuberculosis, ERDMAN, read-out: Mycobacterium tuberculosis MIC, Erdman",0.03 µg/mL
same,MIC,"M.tb H37Rv; Mycobacterium tuberculosis, H37RV, read-out: MIC (H37Rv)",0.015 µg/mL
same,MIC,"M.tb H37Rv; Mycobacterium tuberculosis, H37RV, read-out: Mycobacterium tuberculosis MIC, H37Rv",0.015 µg/mL
same,IC50,"[1]; Chlorocebus sabaeus, Vero, 72 h, read-out: Cell viability IC50, VERO",83 µg/mL
same,IC50,"[2]; Homo sapiens, HepG2, 72 h, read-out: Cell viability IC50, HepG2",13.4 µg/mL
same,Selectivity Index (SI) Erd/HepG2,[3],446.7
same,Selectivity Index (SI) Erd/VERO,[3],2766.7
same,Concentration % (w/w) of free base (visually clear solution),[4],7.3 % (w/w)
same,IC50,[5],0.411 µg/mL
same,potency relative to tedizolid in NTM species and strains,"M.avium; M.avium, M. chelonae, M. abscessus and M. kansasii",generally more potent than tedizolid
same,MIC,M.avium; [11],0.06 µg/mL
same,MIC,M.avium; M. avium sbsp. avium strain 2285 S,0.125 µg/mL
same,MIC,M.avium; M. avium sbsp. avium strain 3993,0.125 µg/mL
same,MIC,M. chelonae; M. chelonae strain 49,0.06 µg/mL
same,MIC,M. chelonae; M. chelonae strain 69,0.5 µg/mL
same,MIC,M. chelonae; M. chelonae strain 35752,0.125 µg/mL
same,MIC,M. abscessus; M. abscessus sbsp. abscessus strain 21,0.25 µg/mL
same,MIC,M. abscessus; M. abscessus sbsp. abscessus strain 1513,32 µg/mL
same,MIC,M. abscessus; M. abscessus sbsp. abscessus strain 1948,0.125 µg/mL
same,MIC,M. kansasii,0.125 µg/mL
same,MIC,M. kansasii; [12],> 32 µg/mL
same,MIC,M. massiliense; Mycobacteroides abscessus,0.25 µg/mL
same,MIC,"M. massiliense; Mycobacteroides abscessus, CIP108297",1 µg/mL
same,burst release phenomenon in plasma in vitro,[6],"observed in human plasma for the formulations containing 40 mol.% cholesterol, but not for the formulations with 45 mol.% or more of cholesterol"
same,MIC,MRSA ATCC BAA-1556 [7]; read-out: MRSA MIC,> 50 µg/mL
same,MIC,MRSA ATCC BAA-1556 [7]; [13],> 50 µg/mL
same,MIC,MRSA ATCC 43300,> 50 µg/mL
same,MIC,MRSA 880 NR-49120,> 50 µg/mL
same,maximum drug load,[8]; 0.5 M AS,404-424 g/mol PhL
same,loading efficiency,"[8]; 0.5 M AS, at drug loads of 302 (AKG-28) and 387-764 (AKG-38) g/mol PhL",quantitative loading
same,maximum drug load,[8]; 1 N TEA-SOS,315-328 g/mol PhL
same,maximum loading efficiency,"[8]; 1 N TEA-SOS, at drug load 250 (AKG-28) and 400-777 (AKG-38) g/mol PhL",83.5%
same,liposome aggregation during drug loading,[8]; [14],irreversibly aggregated during the drug loading
same,loading efficiency (from unencapsulated drug in pre-concentration diafiltrate),"[8]; scaled-up lots, HSPC:Chol:PEG-DSPE 45:55:2.25, 0.5 M AS, DL 250 (AKG-28) or 450 (AKG-38) g/mol",99.1% and 99.3%
CC(=O)NC[C@H]1CN(c2ccc(-c3ccc(-c4nnn(CCN(C)C)n4)nc3)c(F)c2)C(=O)O1 [AKG-38],MIC,M.tb Erdman; [15],0.06 µg/mL
same,MIC,M.tb Erdman; [16],0.06 µg/mL
same,MIC,M.tb H37Rv; [17],0.06 µg/mL
same,MIC,M.tb H37Rv; [18],0.06 µg/mL
same,IC50,"[1]; Chlorocebus sabaeus, Vero, 72 h; read-out: Cell viability IC50, VERO",395 µg/mL
same,IC50,"[2]; Homo sapiens, HepG2, 72 h; read-out: Cell viability IC50, HepG2",97 µg/mL
same,Concentration % (w/w) of free base (visually clear solution),[4],7.1 % (w/w)
same,IC50,[5],0.041 µg/mL
same,MIC,M.avium; [11],0.06 µg/mL
same,MIC,M.avium; [19],0.125 µg/mL
same,MIC,M.avium; [20],0.125 µg/mL
same,MIC,M. chelonae; [21],0.06 µg/mL
same,MIC,M. chelonae; [22],0.5 µg/mL
same,MIC,"M. chelonae; M. chelonae strain 35752, read-out: MIC",0.06 µg/mL
same,MIC,M. abscessus; [23],0.06 µg/mL
same,MIC,M. abscessus; [24],32 µg/mL
same,MIC,M. abscessus; [25],0.06 µg/mL
same,MIC,M. kansasii; [12],> 32 µg/mL
same,MIC,M. kansasii; [26],0.03 µg/mL
same,MIC,M. kansasii; [27],0.06 µg/mL
same,MIC,M. kansasii; [28],0.03 µg/mL
same,MIC,"M. kansasii; M. kansasii strain WT171017, read-out: MIC",0.03 µg/mL
same,MIC,M. massiliense; M. massiliense strain M154,0.25 µg/mL
same,MIC,M. massiliense; [29],0.5 µg/mL
same,MIC,M. massiliense; [30],0.25 µg/mL
same,burst release phenomenon in plasma in vitro,[6],"observed in both human and mouse plasma for the formulations with cholesterol content of 40 mol.% and 45 mol.%, but not at cholesterol content of 50 mol.% or more"
same,MIC,MRSA ATCC BAA-1556 [7]; [13],1.85 µg/mL
same,MIC,MRSA ATCC 43300,1.85 µg/mL
same,MIC,MRSA 880 NR-49120,0.617 µg/mL
same,maximum drug load,[8]; 0.5 M AS,818-842 g/mol PhL
same,maximum drug load,[8]; 1 N TEA-SOS,989 g/mol PhL
same,liposome aggregation during drug loading,[8]; [14],irreversibly aggregated during the drug loading
same,drug load,"[8]; 30 mol% cholesterol, 5 mol % PEG-DSG, 1 N TEA-SOS",462.4 g/mol PhL
"CC(=O)NC[C@H]1CN(c2ccc(N3CCSCC3)c(F)c2)C(=O)O1 [Sutezolid, reference compound]",MIC,M.tb Erdman; [15],0.5 µg/mL
same,MIC,M.tb H37Rv; [18],0.5 µg/mL
same,known aqueous solubility,[9],237 µg/mL
"Cn1nnc(-c2ccc(-c3ccc(N4C[C@H](CO)OC4=O)cc3F)cn2)n1 [Tedizolid, reference compound]",MIC,M.tb Erdman; [15],0.25 µg/mL
same,MIC,M.tb Erdman; [16],0.25 µg/mL
same,MIC,M.tb H37Rv; [17],0.25 µg/mL
same,MIC,M.tb H37Rv; [18],0.25 µg/mL
same,solubility in water for gradient-assisted liposome loading,[4],not soluble enough in water
same,IC50,[5],0.143 µg/mL
same,MIC,M.avium; [11],0.25 µg/mL
same,MIC,M.avium; [19],0.25 µg/mL
same,MIC,M.avium; [20],0.25 µg/mL
same,MIC,M. chelonae; [21],0.25 µg/mL
same,MIC,M. chelonae; [22],2 µg/mL
same,MIC,M. chelonae; M. chelonae strain 35752,0.125 µg/mL
same,MIC,M. abscessus; [23],0.5 µg/mL
same,MIC,M. abscessus; [24],4 µg/mL
same,MIC,M. abscessus; [25],0.5 µg/mL
same,MIC,M. kansasii,0.125 µg/mL
same,MIC,M. kansasii; [12],> 32 µg/mL
same,MIC,M. kansasii; [26],0.25 µg/mL
same,MIC,M. kansasii; [27],0.25 µg/mL
same,MIC,M. kansasii; [28],0.25 µg/mL
same,MIC,M. massiliense; M. massiliense strain M154,0.06 µg/mL
same,activity relative to AKG-28 and AKG-38,"M. massiliense; M. massiliense, three strains",more active in all three strains evaluated
same,MIC,M. massiliense; [29],0.25 µg/mL
same,MIC,M. massiliense; [30],0.06 µg/mL
same,"MRSA MIC described in U.S. Pat. No. 7,816,379",MRSA ATCC BAA-1556 [10],0.5 µg/mL
same,MIC,MRSA ATCC BAA-1556 [7]; read-out: MRSA MIC,0.206 to 0.617 µg/mL
same,MIC,MRSA ATCC BAA-1556 [7]; [13],0.617 µg/mL
same,MIC,MRSA ATCC 43300,0.617 µg/mL
same,MIC,MRSA 880 NR-49120,0.206 µg/mL
